# Test results from US8435562B2 (XenoPort, Inc., priority 2009, dated 2013).
# Test: Powder X-ray diffraction analysis of anhydrous-to-hydrate form conversion (granules, tablets)
# Format: physicochemical
# Procedure: Anhydrous (2R)-2-phenylcarbonyloxypropyl (2S)-2-amino-3-(3,4-dihydroxyphenyl)propanoate mesylate (138.6 g) and hydroxypropylmethyl cellulose (1.4 g) (Methocer HPMC E4M, Dow Chemical) were weighed and sieved through an 18-mesh screen. The screened materials were placed into a high shear wet granulator (KG-5 high sheer blender, 5 L bowl, Key International) and pre-blended for 2 min. […] The material was blended for ca. 10-20 min at an impeller speed of 250 rpm and a chopper speed of 2,000 rpm, and a water spray rate of 2 g/min. After granulation the wet granules were milled through a 16-mesh screen with a brush. The milled wet granules were placed in a dryer (UniGlatt Fluid Bed Dryer, Glatt GmbH) and dried for 24 min at an inlet temperature of 65° C. with airflow adjusted at 8-10 SCFM. The dried granules were milled by manually pressing the granules through a screen.
# Powder X-ray diffraction (PXRD) analysis was performed using a PANalytical X′Pert Pro X-ray diffractometer. The X-ray source was Cu kα1 with output voltage of 45 kV and current of 40 mA. The instrument employed para-focusing Bragg-Brentano geometry with incident divergence and scattering slits set at 1/16° and ⅛°, respectively. Soller slits with a 0.04-mm radius were used for both the incident and diffracted beams to remove axial divergence. Powder samples (9-12 mg) were gently pressed onto a single crystal silicon sample holder to form a smooth surface, and samples were spun at 8 sec/revolution throughout the data acquisition process. The samples were scanned from 2° to 40°(2θ°) with a step size of 0.017° (2θ angle) and a scan speed of 0.067°/sec. Data acquisition was controlled and analyzed with X′Pert Data Collector Software (version 2.2d) and X′Pert Data Viewer (version 1.2c), respectively.
structure (smiles),measurement,setting,value
"CS(=O)(=O)O.C[C@H](COC(=O)[C@@H](N)Cc1ccc(O)c(O)c1)OC(=O)c1ccccc1 [compound 1, (2R)-2-Phenylcarbonyloxypropyl (2S)-2-amino-3-(3,4-dihydroxyphenyl)propanoate mesylate]",Crystal form by PXRD after high shear wet granulation,with 1% sodium lauryl sulfate,did not transform to the hydrate
same,Crystal form by PXRD after high shear wet granulation,"without sodium lauryl sulfate, 7 wt-% water",a combination of the anhydrous and hydrated forms
same,Crystal form by PXRD after high shear wet granulation,"without sodium lauryl sulfate, 15 wt-% water","predominantly crystalline (2R)-2-phenylcarbonyloxypropyl (2S)-2-amino-3-(3,4-dihydroxyphenyl)propanoate mesylate, hydrate"
same,Crystal form by PXRD after high shear wet granulation,"without sodium lauryl sulfate, water content of 9 wt-% and 15 wt-% (FIG. 3 patterns B and C)",characteristic of the hydrated form
